Data set [1] addresses T1, human GLP-1 receptor (Homo sapiens, UniProt P43220).
T1 construct: expressed in transfected cells; host or cells: BHK cells (parent line BHKTS13), clone FCW467-12A; membrane preparation
Kind of data set: GLP-1 receptor binding: competitive binding assay (125I-GLP-1, SPA) on isolated membranes at low and high HSA.

Data set [2] is described as follows: in vivo. The conditions noted are these: male, Göttingen, minipig, iv.
Data set [3] addresses T1, human GLP-1 receptor. Kind of data set: In vitro potency: CRE luciferase reporter gene assay in BHK cells expressing the human GLP-1 receptor. Type of data set: cell-based. The conditions noted are these: whole cell reporter gene assay, BHK cells, human GLP-1 receptor; average of at least two replicates; read-out: EC50. The gist of the method:
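Whole-cell assay in stably transfected BHK cells carrying CRE-driven firefly luciferase, 5×10^3 cells/well, in assay buffer with 2% ovalbumin and 0.2% Pluronic F-68. Compound working solutions were 0.2 μM.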
(Reporter assays use an easily measured gene product as a stand-in for the process of interest.)

The nature of data set [4]: Pharmacokinetic study in minipigs (i.v.). The conditions noted are these: male, Göttingen, minipig, in vivo, iv, 2 nmol/kg.
[5] abbreviates: high HSA (2.0% final assay concentration), read-out: High HSA IC50.
Where [6] appears, read: low HSA (max. 0.001% final assay concentration), read-out: Low HSA IC50.

Where two headings read alike, the source gives them in different places.

For orientation: IC50 means the concentration at which inhibition is half-maximal. In general, half-life refers to the time needed for the level to fall by half in the phase considered. The low end stands for fast loss, the high end for slow loss. By EC50 is commonly meant the concentration at which the effect is half-maximal.

T1 sequence (P43220 24-463): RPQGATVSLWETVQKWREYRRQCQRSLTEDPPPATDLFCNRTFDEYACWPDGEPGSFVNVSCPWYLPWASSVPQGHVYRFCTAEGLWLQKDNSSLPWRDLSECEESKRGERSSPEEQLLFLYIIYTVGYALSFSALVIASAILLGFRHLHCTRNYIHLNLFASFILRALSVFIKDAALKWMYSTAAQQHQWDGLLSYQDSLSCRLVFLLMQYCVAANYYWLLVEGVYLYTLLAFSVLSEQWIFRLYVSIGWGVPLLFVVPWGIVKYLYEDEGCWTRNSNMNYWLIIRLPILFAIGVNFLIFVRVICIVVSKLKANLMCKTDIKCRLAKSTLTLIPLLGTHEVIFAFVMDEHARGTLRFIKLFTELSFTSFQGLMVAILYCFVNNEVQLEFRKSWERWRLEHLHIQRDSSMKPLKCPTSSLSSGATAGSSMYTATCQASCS

In the case of `CC[C@H](C)[C@H](NC(=O)[C@H](Cc1ccccc1)NC(=O)[C@H](CCC(=O)O)NC(=O)[C@H](CCCNC(=N)N)NC(=O)[C@H](C)NC(=O)[C@H](C)NC(=O)[C@H](CCC(N)=O)NC(=O)[C@H](CCC(=O)O)NC(=O)[C@H](CCC(=O)O)NC(=O)[C@H](CC(C)C)NC(=O)[C@H](Cc1ccc(O)cc1)NC(=O)[C@H](CO)NC(=O)[C@H](CO)NC(=O)[C@@H](NC(=O)[C@H](CC(=O)O)NC(=O)[C@H](CO)NC(=O)[C@@H](NC(=O)[C@H](Cc1ccccc1)NC(=O)[C@@H](NC(=O)CNC(=O)[C@H](CCC(=O)O)NC(=O)C(C)(C)NC(=O)[C@@H](N)Cc1c[nH]cn1)[C@@H](C)O)[C@@H](C)O)C(C)C)C(=O)N[C@@H](C)C(=O)N[C@@H](Cc1c[nH]c2ccccc12)C(=O)N[C@@H](CC(C)C)C(=O)N[C@H](C(=O)N[C@@H](CCCNC(=N)N)C(=O)NCC(=O)N[C@@H](CCCNC(=N)N)C(=O)N[C@@H](CCCCNC(=O)CN(CCCNC(=O)COCCOCCNC(=O)COCCOCCNC(=O)COCCOCCNC(=O)COCCOCCNC(=O)[C@@H](N)CCCCNC(=O)[C@@H](N)CCCCNC(=O)CCCCCCCCCCCCCCCCCCC(=O)O)CCCNC(=O)COCCOCCNC(=O)COCCOCCNC(=O)COCCOCCNC(=O)COCCOCCNC(=O)[C@@H](N)CCCCNC(=O)[C@@H](N)CCCCNC(=O)CCCCCCCCCCCCCCCCCCC(=O)O)C(=O)O)C(C)C` [Example 2, N{Epsilon-37}-[2-[bis[3-[[2-[2-[2-[[2-[2-[2-[[2-[2-[2-[[2-[2-[2-[[(2S)-2-amino-6-[[(2S)-2-amino-6-(19-carboxynonadecanoylamino)hexanoyl]amino]hexanoyl]amino]ethoxy]ethoxy]acetyl]amino]ethoxy]ethoxy]acetyl]amino]ethoxy]ethoxy]acetyl]amino]ethoxy]ethoxy]acetyl]amino]propyl]amino]acetyl]-[Aib8,Glu22,Arg26,Arg34,Lys37]-GLP-1-(7-37)-peptide], the figures for the IC50 in data set [1] (setting [5]) and in data set [1] (setting [6]) were 11 nM and 0.19 nM, respectively. Also, the half-life in data set [2] is 113 h.
Consider `CC[C@H](C)[C@H](NC(=O)[C@H](Cc1ccccc1)NC(=O)[C@H](CCC(=O)O)NC(=O)[C@H](CCCNC(=N)N)NC(=O)[C@H](C)NC(=O)[C@H](C)NC(=O)[C@H](CCC(N)=O)NC(=O)[C@H](CCC(=O)O)NC(=O)[C@H](CCC(=O)O)NC(=O)[C@H](CC(C)C)NC(=O)[C@H](Cc1ccc(O)cc1)NC(=O)[C@H](CO)NC(=O)[C@H](CO)NC(=O)[C@@H](NC(=O)[C@H](CC(=O)O)NC(=O)[C@H](CO)NC(=O)[C@@H](NC(=O)[C@H](Cc1ccccc1)NC(=O)[C@@H](NC(=O)CNC(=O)[C@H](CCC(=O)O)NC(=O)C(C)(C)NC(=O)[C@@H](N)Cc1c[nH]cn1)[C@@H](C)O)[C@@H](C)O)C(C)C)C(=O)N[C@@H](C)C(=O)N[C@@H](Cc1c[nH]c2ccccc12)C(=O)N[C@@H](CC(C)C)C(=O)N[C@H](C(=O)N[C@@H](CCCNC(=N)N)C(=O)NCC(=O)N[C@@H](CCCNC(=N)N)C(=O)N[C@@H](CCCCNC(=O)CN(CCCNC(=O)CCOCCOCCOCCOCCOCCOCCOCCOCCOCCOCCOCCOCCOCCOCCOCCOCCOCCOCCOCCOCCOCCOCCOCCOCCNC(=O)[C@@H](N)CCCCNC(=O)[C@@H](N)CCCCNC(=O)CCCCCCCCCCCCCCCCCCC(=O)O)CCCNC(=O)CCOCCOCCOCCOCCOCCOCCOCCOCCOCCOCCOCCOCCOCCOCCOCCOCCOCCOCCOCCOCCOCCOCCOCCOCCNC(=O)[C@@H](N)CCCCNC(=O)[C@@H](N)CCCCNC(=O)CCCCCCCCCCCCCCCCCCC(=O)O)C(=O)O)C(C)C` [Example 6], for which the EC50 in data set [3] was 0.0072 nM. Moreover, the half-maximal inhibitory concentration (IC50) in data set [1] (setting [5]) was 9 nM; in data set [1] (setting [6]) it was 0.05 nM. The compound further had a half-life in data set [2] of 143 h.
For `CC[C@H](C)[C@H](NC(=O)[C@H](Cc1ccccc1)NC(=O)[C@H](CCC(=O)O)NC(=O)[C@H](CCCNC(=N)N)NC(=O)[C@H](C)NC(=O)[C@H](C)NC(=O)[C@H](CCC(N)=O)NC(=O)[C@H](CCC(=O)O)NC(=O)[C@H](CCC(=O)O)NC(=O)[C@H](CC(C)C)NC(=O)[C@H](Cc1ccc(O)cc1)NC(=O)[C@H](CO)NC(=O)[C@H](CO)NC(=O)[C@@H](NC(=O)[C@H](CC(=O)O)NC(=O)[C@H](CO)NC(=O)[C@@H](NC(=O)[C@H](Cc1ccccc1)NC(=O)[C@@H](NC(=O)CNC(=O)[C@H](CCC(=O)O)NC(=O)C(C)(C)NC(=O)CCc1cnc[nH]1)[C@@H](C)O)[C@@H](C)O)C(C)C)C(=O)N[C@@H](C)C(=O)N[C@@H](Cc1c[nH]c2ccccc12)C(=O)N[C@@H](CC(C)C)C(=O)N[C@H](C(=O)N[C@@H](CCCNC(=N)N)C(=O)NCC(=O)N[C@@H](CCCNC(=N)N)C(=O)N[C@@H](CCCCNC(=O)CN(CCCNC(=O)COCCOCCNC(=O)COCCOCCNC(=O)COCCOCCNC(=O)COCCOCCNC(=O)[C@@H](N)CCCCNC(=O)[C@@H](N)CCCCNC(=O)CCCCCCCCCCCCCCCCCCC(=O)O)CCCNC(=O)COCCOCCNC(=O)COCCOCCNC(=O)COCCOCCNC(=O)COCCOCCNC(=O)[C@@H](N)CCCCNC(=O)[C@@H](N)CCCCNC(=O)CCCCCCCCCCCCCCCCCCC(=O)O)C(=O)O)C(C)C` [Example 4], in data set [1] (setting [6]), the IC50 was 0.13 nM. Besides, the half-life in data set [2] was 243 h.
Compound `CC[C@H](C)[C@H](NC(=O)[C@H](Cc1ccccc1)NC(=O)[C@H](CCC(=O)O)NC(=O)[C@H](CCCNC(=N)N)NC(=O)[C@H](C)NC(=O)[C@H](C)NC(=O)[C@H](CCC(N)=O)NC(=O)[C@H](CCC(=O)O)NC(=O)[C@H](CCC(=O)O)NC(=O)[C@H](CC(C)C)NC(=O)[C@H](Cc1ccc(O)cc1)NC(=O)[C@H](CO)NC(=O)[C@H](CO)NC(=O)[C@@H](NC(=O)[C@H](CC(=O)O)NC(=O)[C@H](CO)NC(=O)[C@@H](NC(=O)[C@H](Cc1ccccc1)NC(=O)[C@@H](NC(=O)CNC(=O)[C@H](CCC(=O)O)NC(=O)C(C)(C)NC(=O)[C@@H](N)Cc1c[nH]cn1)[C@@H](C)O)[C@@H](C)O)C(C)C)C(=O)N[C@@H](C)C(=O)N[C@@H](Cc1c[nH]c2ccccc12)C(=O)N[C@@H](CC(C)C)C(=O)N[C@H](C(=O)N[C@@H](CCCNC(=N)N)C(=O)NCC(=O)N[C@@H](CCCNC(=N)N)C(=O)N[C@@H](CCCCNC(=O)COCCOCCNC(=O)COCCOCCNC(=O)COCCOCCNC(=O)COCCOCCNC(=O)CN(CCCNC(=O)CC[C@H](NC(=O)[C@H]1CC[C@H](CNC(=O)CCCCCCCCCCCCCCCCCCC(=O)O)CC1)C(=O)O)CCCNC(=O)CC[C@H](NC(=O)[C@H]1CC[C@H](CNC(=O)CCCCCCCCCCCCCCCCCCC(=O)O)CC1)C(=O)O)C(=O)O)C(C)C` [Example 27, N{Epsilon-37}-[2-[2-[2-[[2-[2-[2-[[2-[2-[2-[[2-[2-[2-[[2-[bis[3-[[(4S)-4-carboxy-4-[[4-[(19-carboxynonadecanoylamino)methyl]cyclohexanecarbonyl]amino]butanoyl]amino]propyl]amino]acetyl]amino]ethoxy]ethoxy]acetyl]amino]ethoxy]ethoxy]acetyl]amino]ethoxy]ethoxy]acetyl]amino]ethoxy]ethoxy]acetyl]-[Aib8,Glu22,Arg26,Arg34,Lys37]-GLP-1-(7-37)-peptide] showed a half-life in data set [4] of 138 h.
As for `CC[C@H](C)[C@H](NC(=O)[C@H](Cc1ccccc1)NC(=O)[C@H](CCC(=O)O)NC(=O)[C@H](CCCNC(=N)N)NC(=O)[C@H](C)NC(=O)[C@H](C)NC(=O)[C@H](CCC(N)=O)NC(=O)[C@H](CCC(=O)O)NC(=O)[C@H](CCC(=O)O)NC(=O)[C@H](CC(C)C)NC(=O)[C@H](Cc1ccc(O)cc1)NC(=O)[C@H](CO)NC(=O)[C@H](CO)NC(=O)[C@@H](NC(=O)[C@H](CC(=O)O)NC(=O)[C@H](CO)NC(=O)[C@@H](NC(=O)[C@H](Cc1ccccc1)NC(=O)[C@@H](NC(=O)CNC(=O)[C@H](CCC(=O)O)NC(=O)C(C)(C)NC(=O)[C@@H](N)Cc1c[nH]cn1)[C@@H](C)O)[C@@H](C)O)C(C)C)C(=O)N[C@@H](C)C(=O)N[C@@H](Cc1c[nH]c2ccccc12)C(=O)N[C@@H](CC(C)C)C(=O)N[C@H](C(=O)N[C@@H](CCCNC(=N)N)C(=O)NCC(=O)N[C@@H](CCCNC(=N)N)C(=O)N[C@@H](CCCCNC(=O)COCCOCCNC(=O)COCCOCCNC(=O)COCCOCCNC(=O)COCCOCCNC(=O)COCCOCCNC(=O)COCCOCCNC(=O)CN(CCCNC(=O)CC[C@H](NC(=O)CCCCCCCCCCCCCCCCCCC(=O)O)C(=O)O)CCCNC(=O)CC[C@H](NC(=O)CCCCCCCCCCCCCCCCCCC(=O)O)C(=O)O)C(=O)O)C(C)C` [Example 26, N{Epsilon-37}-[2-[2-[2-[[2-[2-[2-[[2-[2-[2-[[2-[2-[2-[[2-[2-[2-[[2-[2-[2-[[2-[bis[3-[[(4S)-4-carboxy-4-(19-carboxynonadecanoylamino)butanoyl]amino]propyl]amino]acetyl]amino]ethoxy]ethoxy]acetyl]amino]ethoxy]ethoxy]acetyl]amino]ethoxy]ethoxy]acetyl]amino]ethoxy]ethoxy]acetyl]amino]ethoxy]ethoxy]acetyl]amino]ethoxy]ethoxy]acetyl]-[Aib8,Glu22,Arg26,Arg34,Lys37]-GLP-1-(7-37)-peptide], the IC50 in data set [1] (setting [5]) amounted to 29 nM; in data set [1] (setting [6]), 0.36 nM. In data set [2], this compound had a half-life of 131 h.

These data come from patent US11572398B2, “GLP-1 derivatives and uses thereof” (Novo Nordisk A/S, priority 2014, dated 2023).
